Measured values reported in PMC10900488, “Synthesis and Evaluation of (Bis)benzyltetrahydroisoquinoline Alkaloids as Antiparasitic Agents” (JACS Au, 2024).
Like-named read-outs stand apart in the source and are kept apart here.

Columns and labels:
[1] = system: L. infantum promastigotes; assay: Antipromastigote assay (L. infantum), MTT colorimetric; type: cell-based, Leishmania (L.) infantum; details: 48 h; for IC50: Leishmania infantum, read-out: L. infantum IC50 promastigotes
Protocol: (§1) Table 1 depicts the antileishmanial (L. infantum) activity evaluation performed against both the amastigote form (evaluated microscopically using an ex vivo intracellular model of mice macrophages) and the promastigote one (using an MTT colorimetric method).[32],[33] The cytotoxicity was evaluated against NCTC cells using an MTT colorimetric method and the selectivity index was determined using the ratio between the CC50 values (NCTC cells) and the IC50 values (amastigotes).[32] […] With respect to the substituents on the C ring, larger, hydrophobic groups conferred greater bioactivity (e.g., 9b–d), whereas small, hydrophilic groups such as a hydroxyl group afford modest to poor bioactivity.
(§2) Leishmania (L.) infantum (MHOM/BR/1972/LD) amastigotes were obtained from golden hamsters (Mesocricetus auratus) spleens following 60-70 days of infection via differential centrifugation. The Stauber method was used to determine the number of parasites.12 […]
Biological activity assays
Antipromastigote Assay (L. infantum)
L. infantum promastigotes (1 × 10^6 cells/well) were added to a 96-well plates. Treatment of the cells with selected compounds (serially diluted 0.14 to 200 μM) was performed in M199 medium supplemented with 0.25% hemin and 10% fetal bovine serum for 48 h at 24 °C. The MTT colorimetric assay was used to determine the activity (IC50) of the compounds. Miltefosine was used as a standard drug and untreated promastigotes were used as a negative control. The half inhibitory concentration (IC50) was determined from a sigmoidal regression of the concentration-response curves generated in GraphPadPrism7. […]

L. infantum amastigotes = assay: Antiamastigote assay (L. infantum), ex vivo intracellular model of mice macrophages, microscopy; type: cell-based, Leishmania (L.) infantum; details: 96 h, read-out: L. infantum IC50 amastigotes
Protocol: as §1, §2
(§3) Peritoneal macrophages were obtained via washing the peritoneal cavity of BALB/c mice with 10% foetal calf serum supplemented RPMI-1640 medium (pH 7.2). The macrophages were maintained in a humidified incubator at 37 °C and with 5% CO2.
(§4) Biological activity assays […]
Antiamastigote Assay (L. infantum)
Peritoneal macrophages (1 × 10^5/well) were added to a 16-well slide chambers (NUNC) and incubated with 5% CO2 at 37 °C. The cells were subsequently infected with L. infantum amastigotes (10:1 amastigotes/macrophage) for 24 h. Treatment of the cells with selected compounds (serially diluted 1.2 to 150 μM) was performed in a humidified incubator for 96 h at 37 °C and with 5% CO2. Untreated cells were used as a negative control and miltefosine was used as a standard drug. The treated cells were fixed on slides with methanol, stained with Giemsa and observed under a light microscope.13 The infection index was used in order to determine the half inhibitory concentration (IC50) (no. infected macrophages × no. amastigotes / total no. […]

T. cruzi trypomastigotes = assay: Antitrypomastigote assay (T. cruzi), resazurin; type: cell-based, Trypanosoma (T.) cruzi; details: 24 h, read-out: T. cruzi IC50 trypomastigotes
Protocol: (§5) T. cruzi also assumes several cell morphologies during its lifecycle, which differ between the insect vector and mammalian host. In the latter environment, the parasite transitions between extracellular bloodstream trypomastigotes and intracellular amastigotes; both forms are clinically relevant, particularly during the acute stage of Chagas disease.[34] In this work, antitrypanosomal activity was tested against both the amastigote form (evaluated microscopically using an ex vivo intracellular model using mice macrophages) and the trypomastigote form (using the resazurin in vitro assay).[33],[35] […] In silico predictions of pharmacokinetic profiles were carried out using the SwissADME webtool (see the Supporting Information for details).[36] […]
(§6) […] Cultivation was performed in 2% fetal calf serum supplemented RPMI-1640 medium.
(§7) The trypomastigotes were maintained in a humidified incubator at 37 °C and with 5% CO2. […]
as §4
The half inhibitory concentration (IC50) was determined from a sigmoidal regression of the concentration-response curves generated in GraphPadPrism7. […]
Treatment of the cells with selected compounds (serially diluted 1.2 to 150 μM) was performed in a humidified incubator in RPMI 1640 medium for 24 h at 37 °C and with 5% CO2. Resazurin (0.011% in PBS) was added subsequently to verify parasite viability. Benznidazole was used as a standard drug. The optical density was determined at 570 nm using the FilterMax F5 (Molecular Devices). […]

T. cruzi amastigotes = assay: Antiamastigote assay (T. cruzi), ex vivo intracellular model using mice macrophages, microscopy; type: cell-based, Trypanosoma (T.) cruzi
Protocol: as §5, §6, §7, §3, §4
Peritoneal macrophages (1 × 10^5 cells/well) obtained from the peritoneal cavity of BALB/C mice were added to 16-well chambers (NUNC, Thermo Fischer Scientific). The cells were infected with trypomastigotes (10:1 parasites/macrophage) for 2 h. Then treatment of the infected macrophages with selected compounds (serially diluted 1.2 to 100 μM) was performed in a humidified incubator for 48 h at 37 °C and with 5% CO2. The treated cells were fixed on slides using methanol, stained with Giemsa and observed under a light microscope (EVOS M5000, Thermo, USA) with digital image equipment. The infection index was used in order to determine the half inhibitory concentration (IC50) (no. infected macrophages × no. amastigotes / total no.

[2] = Mammalian toxicity, MTT colorimetric; type: cell-based, murine; details: mouse
Protocol: as §1, with “bioactivity. […]” for “bioactivity.”
Murine conjunctive fibroblasts NCTC clone 929 (ATCC) were maintained in 10% foetal calf serum supplemented RPMI-1640 medium (pH 7.2) at 37 °C in a humidified incubator with 5% CO2. […]
as §4
(§8) NCTC cells (6 × 10^4/well) were added to a 96-well plate. Treatments of the cells with selected compounds (serially diluted 1.5 to 200 μM) was performed in a humidified incubator for 96 h at 37 °C and with 5% CO2.
(§9) The MTT colorimetric method was used to determine the 50% cytotoxic concentration (CC50) and the selectivity index (CC50 against NCTC cells/IC50 against amastigotes).15 […]
(§10) […] At 6 h and 24 h post-treatment, a 1 mL aliquot was taken for imaging. The cell cycle experiment was preformed twice independently.
(§11) Generation of mNG::RAD51 tagged cell line
(§12) The single-stranded DNA-binding protein RAD51, associated with DNA Repair, LmxM.28.0550 was tagged with endogenous fluorescent protein mNeonGreen (mNG) at the N-terminus. […]
Primers for constructs and sgRNA were designed using LeishGEdit (http://www.leishGEdit.net).
PCR was at 94 °C for 5 min, followed by 35 cycles at 94 °C (15 sec), 65 °C (15 sec), 72 °C (2 min) then finally 72 °C (1 min).
PCR was at 94 °C for 30 sec, followed by 30 cycles at 94 °C (30 sec), 60 °C (30 sec), 72 °C (30 sec) then finally 72 °C (2 min). […] Combined PCR products were precipitated for 20 min with 10 μL 3M sodium acetate and 300 μL EtOH, pelleted at 14000 min-1 30 min, washed once with 70% EtOH, re-pelleted and resuspended in […]
Promastigotes (1 × 10^7 cells) were combined with PCR products and transfected using the Amaxa Nucleofector II.17 Electroporation was performed using 2 mm cuvettes on the X-100 program, followed by immediate suspension in pre-warmed M199 medium. Successful transfectants were selected with 20 μg mL-1 Puromycin 15 h after transfection, taking 4 days to reach stable growth in culture. mNG::RAD51 nuclear foci studies mNG::RAD51 promastigotes (5 × 10^6 cells mL-1) in 7 mL of M199 medium were treated with 7 μL o f compound (S)-9a or (S)-9b dissolved in DMSO giving a final concentration of 50 μM. Phleomycin was used as a positive control at a final concentration of 25 μg mL-1. At T = 0, 15, 30, 60 min, and 2, 6, 24 h post-treatment a 0.8 mL aliquot was taken for imaging.

mNG::RAD51 promastigotes = assay: mNG::RAD51 nuclear foci studies; type: cell-based, Leishmania (L.) mexicana; details: 25 μg mL-1, from 2 h posttreatment
Source text: DSBs often lead to cytotoxicity, which could be an explanation for the observed compound activity.[44]−[46]Leishmania employ the RAD51 DNA recombinase protein as part of its DNA repair machinery to fix naturally occurring nuclear DSBs via homologous recombination.[47]−[50] Using a CRISPR/Cas9 gene editing strategy,[51] we generated a genetically modified cell line with mNeonGreen tagged RAD51. This would allow observation of fluorescent RAD51 protein recruitment to foci in the nucleus corresponding to DSB accumulation, as has been shown in T. brucei.[52],[53] Phleomycin was used as a positive control to induce DSBs,[54] which led to the expected observation of accumulation of RAD51 as green dots in the nucleus in 80% of cells from as early as 2 h posttreatment (Figure 2D). […] We can therefore conclude that the BI compounds tested are unlikely to act via DSBs (albeit this methodology is sensitive only to DSBs in nuclear DNA), and another mechanism of cell cycle disruption is responsible for the breakdown in the healthy cell cycle.
as §8, §9
[…] […] Statistical significance was derived from a two-tailed T-test.
The Graph Pad Prism 5 software was used to perform sigmoid dose-response curves for the determination of […]
as §10, §11, §12
Primers for constructs and sgRNA were designed using LeishGEdit (http://www.leishGEdit.net). […]

[3] = Leishmania infantum, Peritoneal macrophage, ± SD, intracellular, peritoneal macrophages
[4] = Trypanosoma cruzi, ± SD, resazurin
[5] = Trypanosoma cruzi, Peritoneal macrophage, 48 h, ± SD, read-out: T. cruzi IC50 amastigotes

Row | Compound | IC50 ([1]; ± SD, MTT) [µM] | IC50 (L. infantum amastigotes; [3]) [µM] | IC50 (T. cruzi trypomastigotes; [4]) [µM] | IC50 (T. cruzi amastigotes; [5]) [µM] | CC50 at 96 h [2] [µM] | also measured
1 | COc1ccc(COc2ccc(C[C@H]3c4cc(OC)c(OC)cc4CCN3C)cc2Br)cc1 [(S)-9c] | 5.2 ± 1.3 | > 150 | 11.1 ± 1.7 | 3.3 ± 0.01 | 6.3 ± 2.3 | 
2 | COc1cc2c(cc1OC)[C@H](Cc1ccc(OCc3ccccc3)cc1)N(C)CC2 [(S)-9d] | 3.7 ± 0.2 | < 10 | < 10 | 3.2 ± 0.5 | 6.6 ± 1.5 | IC50 (L. infantum amastigotes; ± SD, intracellular, peritoneal macrophages): 7.5 ± 2.2 µM; IC50 (T. cruzi trypomastigotes; ± SD, resazurin): 7.6 ± 0.4 µM
3 | COc1ccc(C[C@H]2c3cc(OC)c(OC)cc3CCN2C)cc1O [(S)-10a, (+)-laudanidine] |  |  |  |  |  | IC50 [1]: 95.4 ± 2 µM; IC50 (L. infantum amastigotes; Leishmania infantum, Peritoneal macrophage): > 150 µM; IC50 (T. cruzi trypomastigotes; Trypanosoma cruzi): > 150 µM; IC50 (T. cruzi amastigotes; Trypanosoma cruzi, Peritoneal macrophage, 48 h, read-out: T. cruzi IC50 amastigotes, ± SD): < 10 µM; IC50 (T. cruzi amastigotes; read-out: T. cruzi IC50 amastigotes, ± SD, peritoneal macrophages, 48 h): 5.9 ± 0.9 µM; CC50 at 96 h ([2]; ± SD, NCTC cells, MTT, 96 h, read-out: CC50): > 200 µM
4 | COc1cc2c(cc1OC)[C@H](Cc1ccc(O)cc1)N(C)CC2 [(S)-10b, (+)-armepavine] | 36.2 ± 5.2 | > 150 | 124 ± 2.3 | > 100 | > 200 | 
5 | COc1ccc(COc2ccc(C[C@H]3c4cc(OC)c(OC)cc4CCN3C)cc2Oc2ccc(C[C@@H]3c4cc(OC)c(OC)cc4CCN3C)cc2)cc1 [(S,R)-12] | 0.7 ± 0.1 | > 150 | 1.7 ± 0.3 | > 100 | 4.7 ± 1.7 | L. infantum IC50 promastigotes ([1]; ± SD, MTT): submicromolar
6 | COc1cc2c(cc1OC)[C@@H](Cc1ccc(O)c(Oc3ccc(C[C@H]4c5cc(OC)c(OC)cc5CCN4C)cc3)c1)N(C)CC2 [(S,R)-13] | 5.7 ± 1.3 | 3.6 ± 0.3 | 4.2 ± 4.8 | 4.4 ± 0.4 | 15.6 ± 1.6 | 
7 | COc1cc2c(cc1OC)[C@H](Cc1ccc(Oc3cc(C[C@H]4c5cc(OC)c(OC)cc5CCN4C)ccc3OC)cc1)N(C)CC2 [(S,S)-11, (+)-O-methylthalibrine] | 0.7 ± 0.01 | > 150 | 3.7 ± 3.6 | > 100 | 11.4 ± 0.2 | 
8 | COc1ccc(COc2ccc(C[C@H]3c4cc(OC)c(OC)cc4CCN3C)cc2Oc2ccc(C[C@H]3c4cc(OC)c(OC)cc4CCN3C)cc2)cc1 [(S,S)-12] | 1.1 ± 0.5 | > 150 | 5.6 ± 2.1 | > 100 | 20.8 ± 5.4 | 
9 | COc1cc2c(cc1OC)[C@H](Cc1ccc(Oc3cc(C[C@H]4c5cc(OC)c(OC)cc5CCN4C)ccc3O)cc1)N(C)CC2 [(S,S)-13, (+)-dauricine] | 5.5 ± 0.6 | > 150 | 5.1 ± 4.8 | 2.3 ± 1.1 | 15.9 ± 0.8 | 
10 | Phleomycin [reference compound] |  |  |  |  |  | cells with accumulation of RAD51 in the nucleus (mNG::RAD51 promastigotes): 80%
